Experimental data taken from a compilation of properties of binary mixtures (doi:10.1016/j.molliq.2022.119417).

Experiment: xn = mol fraction of the nth substance listed
Settings: 100 kPa

CC[n+]1ccn(C)c1.O=S(=O)([O-])O + OCCO
viscosity [mPa·s]
Settings | x1 = 0.125 | x1 = 0.143 | x1 = 0.167 | x1 = 0.2 | x1 = 0.25 | x1 = 0.33 | x1 = 0.5
298.15 K | 19 | 21 | 24 | 28 | 35 | 52 | 95
303.15 K | – | 17 | 20 | 23 | 29 | 43 | –
308.15 K | 13 | 15 | 17 | 19 | – | 35 | 62
313.15 K | 11 | – | 14 | 16 | 20 | – | 50
318.15 K | 9 | 11 | – | 14 | 18 | 25 | 42
323.15 K | 8 | 9 | 10 | 12 | 15 | – | 35
